Test results from patent publication US8969375B2, “CDK9 kinase inhibitors” (AbbVie Inc., priority 2013, dated 2015).
Marks after values point to notes of the source that are not given here.

Assays:
A431 cells = experiment: Cell viability assay (Cell TiterGlo), A431 cells; type: cell-based; conditions: Homo sapiens, A-431, 24 hours
Method: (§1) Cell viability assays were performed using A431 or H929 cells. A431 cells were seeded in 96-well plates at 10,000 cells/well, and after overnight incubation, treated with compounds at 2-times the final concentration to result in a dose response of 3-fold dilutions from 10 μM to 0.0005 μM (50 μL/well, 0.1% final DMSO concentration). H929 cells were seeded in 96-well plates at 10,000 cells/well and treated immediately with compounds as described above. After 24 hours at 37° C., cell viability was measured using Cell TiterGlo reagent (Promega) with a luminescence reader. Alternately, cell viability assays were performed in 384-well format. A431 cells were seeded in 384-well plates at 2500 cells/well and, after overnight incubation, treated with compounds in a dose response of 3-fold dilutions from 10 μM to 0.0005 μM ([…], 0.1% final DMSO concentration). For the H929 viability assay, […] of the compounds was dispensed into 384-well plates in a dose response as described above and cells were immediately seeded in 384-well plates at 2500 cells/well. After 24 hours at […], cell viability was measured using Cell TiterGlo reagent (Promega) with a luminescence reader.

CDK9/Cyclin T1 = target: T1, CDK9/Cyclin T1 (Homo sapiens, UniProt P50750); experiment: CDK9 enzyme activity, LANCE ULight TR-FRET kinase assay; type: biochemical; conditions: 1000 μM ATP, 4 nM CDK9/Cyclin T1, 30 minutes
T1 construct: purchased Carna Biosciences 04-110
Method: CDK9 enzyme activities were measured using LANCE ULight TR-FRET kinase assay reagents (PerkinElmer, Waltham, Mass.). Compounds were directly added in 100% DMSO to white low volume assay plates (Perkin Elmer Proxiplate 6008289) using a Labcyte Echo acoustic dispenser. Assay reagents in serine/threonine kinase assay buffer containing 20 mM HEPES, 10 mM MgCl2, 100 mM Na3VO4, and 0.0075% Triton X-100. were added for final reaction mixture concentrations of 1000 μM ATP, 100 nM U-light MBP peptide (Perkin Elmer TRF0109M) and reaction initiated with 4 nM CDK9/Cyclin T1 (Carna Biosciences 04-110). The kinase reaction was carried out for 30 minutes before addition of stopping buffer to a final of 20 mM EDTA and 0.5 nM of LANCE Ultra Europium anti-phospho-MBP antibody (PerkinElmer TRF0201M) in LANCE detection buffer (PerkinElmer CR97-100). The reaction was equilibrated for 1 hour and the signal read in the Perkin Elmer Envision in TR-FRET mode (excitation at 320 nm and emission at 615/665 nm).

H929 xenograft tumors = experiment: Xenograft tumor growth inhibition assay, H929 human multiple myeloma xenograft; type: in vivo, mice; conditions: IP, TW x 3; for % TGD (tumor growth delay): (T − C)/C × 100, median time to endpoint; for % TGI: female nude or SCID-beige mice, end of treatment period; for % removed from study: removed due to morbidity or weight loss in excess of 20%
Method: Xenograft Tumor Growth Inhibition Assay
The effect of Examples 1, 4, and 5 to inhibit the growth of H929 xenograft tumors implanted in mice was evaluated. NCI-H929 cells obtained from culture were suspended in cell culture medium (MEM, no calcium, no glutamine, Life Technologies Corporation) and diluted 1:1 with a solution of Matrigel™ (BD Biosciences, Franklin Lakes, N.J.). Tumor cells 5 million per site were inoculated subcutaneously into the right hind flank of female nude or SCID-beige mice (Charles River Labs).
Randomization into treatment and vehicle control groups (9-10/group) occurred when the mean tumor volume reached approximately 200 mm^3 Compounds were formulated in 2% DMSO, 5% Tween80, 20% PEG400, 73% HPMC. Administration of compound or vehicle was initiated on the day following randomization and continued for the indicated time. Tumors were measured twice a week throughout the treatment period using a pair of calipers and tumor volumes were calculated according to the formula V=L×W^2/2 (V: volume, mm^3; L: length, mm. W: width, […]). Tumor growth inhibition was calculated based on the mean tumor volume measured at the end of the treatment period according to the formula % TGI=100−mean tumor volume of treatment group/mean tumor volume of control group×100.

H929 cells = experiment: Cell viability assay (Cell TiterGlo), H929 cells; type: cell-based, human; conditions: Homo sapiens, NCI-H929, 24 hours
Method: as §1

T1 sequence (P50750 whole entry): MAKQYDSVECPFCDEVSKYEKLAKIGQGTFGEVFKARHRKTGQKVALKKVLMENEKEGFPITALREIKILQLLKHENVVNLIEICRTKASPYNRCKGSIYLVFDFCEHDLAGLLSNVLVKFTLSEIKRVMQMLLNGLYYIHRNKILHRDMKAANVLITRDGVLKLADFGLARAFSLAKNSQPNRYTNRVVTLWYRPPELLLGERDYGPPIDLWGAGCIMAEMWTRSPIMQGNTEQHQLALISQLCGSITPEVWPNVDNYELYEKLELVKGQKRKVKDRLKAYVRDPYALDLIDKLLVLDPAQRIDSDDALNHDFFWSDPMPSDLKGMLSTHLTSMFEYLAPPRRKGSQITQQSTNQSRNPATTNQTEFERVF
T1 sequence (O60563 whole entry partner): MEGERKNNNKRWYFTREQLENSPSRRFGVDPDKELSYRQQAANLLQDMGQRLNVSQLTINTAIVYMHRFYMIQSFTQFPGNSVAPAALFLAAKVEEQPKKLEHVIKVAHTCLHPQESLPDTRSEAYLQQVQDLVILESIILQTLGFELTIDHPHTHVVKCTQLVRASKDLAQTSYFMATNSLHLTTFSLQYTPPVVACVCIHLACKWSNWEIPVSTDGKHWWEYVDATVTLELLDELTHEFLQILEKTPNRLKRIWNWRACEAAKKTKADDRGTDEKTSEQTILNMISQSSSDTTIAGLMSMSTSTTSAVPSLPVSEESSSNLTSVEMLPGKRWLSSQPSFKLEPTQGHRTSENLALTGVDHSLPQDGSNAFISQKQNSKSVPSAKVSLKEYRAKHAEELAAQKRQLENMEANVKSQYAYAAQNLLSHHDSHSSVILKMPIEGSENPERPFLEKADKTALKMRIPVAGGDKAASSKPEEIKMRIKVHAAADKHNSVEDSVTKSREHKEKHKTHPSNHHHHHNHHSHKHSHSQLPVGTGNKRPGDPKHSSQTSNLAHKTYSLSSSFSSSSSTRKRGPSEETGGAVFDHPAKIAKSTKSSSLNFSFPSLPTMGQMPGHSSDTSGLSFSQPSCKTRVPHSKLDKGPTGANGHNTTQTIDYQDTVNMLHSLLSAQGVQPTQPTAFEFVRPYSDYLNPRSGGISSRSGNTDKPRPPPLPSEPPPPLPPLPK

## Fc1cccc(CN2CCc3ccc(-c4ccnc5[nH]c(C6CCNCC6)cc45)cc32)c1 [Example 1, 4-[1-(3-fluorobenzyl)-2,3-dihydro-1H-indol-6-yl]-2-(piperidin-4-yl)-1H-pyrrolo[2,3-b]pyridine]
A431 cells
  EC50: 0.55 µM
CDK9/Cyclin T1
  IC50: 0.064 µM
H929 xenograft tumors; 3.75 mg/kg
  % TGD (tumor growth delay): 55%
  % TGI: 64** %
  % removed from study: 0%
H929 xenograft tumors; 7.50 mg/kg
  % TGD (tumor growth delay): 66*** %
  % TGI: 66*** %
  % removed from study: 11%
H929 cells
  EC50: 0.49 µM

## CS(=O)(=O)N1CCC(c2cc3c(-c4ccc5ncn(Cc6cccc(F)c6)c5c4)ccnc3[nH]2)CC1 [Example 4, 1-(3-fluorobenzyl)-6-{2-[1-(methylsulfonyl)piperidin-4-yl]-1H-pyrrolo[2,3-b]pyridin-4-yl}-1H-benzimidazole]
A431 cells
  EC50: 0.009 µM
CDK9/Cyclin T1
  IC50: 0.024 µM
H929 xenograft tumors; 3.75 mg/kg
  % TGD (tumor growth delay): 5%
  % TGI: 25%
  % removed from study: 0%
H929 xenograft tumors; 7.50 mg/kg
  % TGD (tumor growth delay): 42*** %
  % TGI: 62** %
  % removed from study: 11%
H929 cells
  EC50: 0.015 µM

## Fc1cncc(Cn2cnc3ccc(-c4ccnc5[nH]c(C6CCNCC6)cc45)cc32)c1 [Example 12, 1-[(5-fluoropyridin-3-yl)methyl]-6-[2-(piperidin-4-yl)-1H-pyrrolo[2,3-b]pyridin-4-yl]-1H-benzimidazole]
A431 cells
  EC50: 0.13 µM
CDK9/Cyclin T1
  IC50: 0.03 µM
H929 cells
  EC50: 0.075 µM

## Fc1cccc(Cn2cnc3ccc(-c4ccnc5[nH]c(C6=CCNCC6)cc45)cc32)c1 [Example 14, 1-(3-fluorobenzyl)-6-[2-(1,2,3,6-tetrahydropyridin-4-yl)-1H-pyrrolo[2,3-b]pyridin-4-yl]-1H-benzimidazole]
A431 cells
  EC50: 0.004 µM
CDK9/Cyclin T1
  IC50: 0.014 µM
H929 cells
  EC50: 0.007 µM

## CS(=O)(=O)N1CC=C(c2cc3c(-c4ccc5ncn(Cc6cccc(F)c6)c5c4)ccnc3[nH]2)CC1 [Example 15, 1-(3-fluorobenzyl)-6-{2-[1-(methylsulfonyl)-1,2,3,6-tetrahydropyridin-4-yl]-1H-pyrrolo[2,3-b]pyridin-4-yl}-1H-benzimidazole]
A431 cells
  EC50: 0.006 µM
CDK9/Cyclin T1
  IC50: 0.043 µM
H929 cells
  EC50: 0.007 µM

## CNC(=O)N1CC=C(c2cc3c(-c4ccc5ncn(Cc6cccc(F)c6)c5c4)ccnc3[nH]2)CC1 [Example 24, 4-{4-[1-(3-fluorobenzyl)-1H-benzimidazol-6-yl}-1H-pyrrolo[2,3-b]pyridin-2-yl]-N-methyl-3,6-dihydropyridine-1(2H)-carboxamide]
A431 cells
  EC50: 0.013 µM
CDK9/Cyclin T1
  IC50: 0.035 µM
H929 cells
  EC50: 0.027 µM

## OCC(O)CN1CC=C(c2cc3c(-c4ccc5ncn(Cc6cccc(F)c6)c5c4)ccnc3[nH]2)CC1 (stereo not drawn) [Example 25, 3-[4-{4-[1-(3-fluorobenzyl)-1H-benzimidazol-6-yl]-1H-pyrrolo[2,3-b]pyridin-2-yl}-3,6-dihydropyridin-1(2H)-yl]propane-1,2-diol]
A431 cells
  EC50: 0.043 µM
CDK9/Cyclin T1
  IC50: 0.019 µM
H929 cells
  EC50: 0.049 µM

## CC(=O)Nc1ccc(CN2CC=C(c3cc4c(-c5ccc6ncn(Cc7cccc(F)c7)c6c5)ccnc4[nH]3)CC2)cc1 [Example 26, N-(4-{[4-{4-[1-(3-fluorobenzyl)-1H-benzimidazol-6-yl]-1H-pyrrolo[2,3-b]pyridin-2-yl}-3,6-dihydropyridin-1(2H)-yl]methyl}phenyl)acetamide]
A431 cells
  EC50: 0.006 µM
CDK9/Cyclin T1
  IC50: 0.043 µM
H929 cells
  EC50: 0.026 µM

## Fc1cccc(Cn2ccc3ncc(-c4ccnc5[nH]c(C6CCNCC6)cc45)cc32)c1 [Example 29, 1-(3-fluorobenzyl)-6-[2-(piperidin-4-yl)-1H-pyrrolo[2,3-b]pyridin-4-yl]-1H-pyrrolo[3,2-b]pyridine]
A431 cells
  EC50: 0.033 µM
CDK9/Cyclin T1
  IC50: 0.028 µM
H929 cells
  EC50: 0.087 µM

## Fc1cncc(Cn2ccc3ccc(-c4ccnc5[nH]c(C6=CCNCC6)cc45)nc32)c1 [Example 51, 1′-[(5-fluoropyridin-3-yl)methyl]-2-(1,2,3,6-tetrahydropyridin-4-yl)-1H,1′H-4,6′-bipyrrolo[2,3-b]pyridine]
A431 cells
  EC50: 0.011 µM
CDK9/Cyclin T1
  IC50: 0.014 µM
H929 cells
  EC50: 0.09 µM
